Here are results for 9 molecules from article PMC11062922 (Nature Chemical Biology, 2023).

One test has as its target T1, PIM2 (Homo sapiens, UniProt Q9P1W9).
T1 construct: a mixture of lysates from five cancer cell lines; endogenous in cells
In words: Kinobeads competition binding: PIM2. As to conditions: target PIM2. From the text: Supplement 41589_2023_1459_MOESM4_ESM.xlsx, sheet "CATDS matrix" | column: PIM2

The subject of another test is PKMYT1. In words: Kinobeads competition binding: PKMYT1. Particulars: target PKMYT1. More on the design: species or system human.
In the next test the target is T2, CAMK2B (Homo sapiens, UniProt Q13554).
T2 construct: endogenous in cells
In words: Kinobeads competition binding: CAMK2B. As to conditions: target CAMK2B. From the text: Supplement 41589_2023_1459_MOESM4_ESM.xlsx, sheet "CATDS matrix" | column: CAMK2B

Another test concerns FLT3. In words: Kinobeads two-dose competition binding: FLT3. More on the design: species or system human. As to conditions: for CATDS: target FLT3.
For a further test, the system named is CDC42BPB. In words: Kinobeads competition binding: CDC42BPB. More on the design: species or system human. Particulars: target CDC42BPB.
A further test has as its target T3, CDK7 (Homo sapiens, UniProt P50613).
T3 construct: endogenous in cells
In words: Kinobeads competition binding: CDK7. As to conditions: target CDK7.

A further test deals with NEK9. In words: Kinobeads competition binding: NEK9. More on the design: species or system human. As to conditions: target NEK9.
Another test deals with T4, PIM1 (Homo sapiens, UniProt P11309).
T4 construct: a mixture of lysates from five cancer cell lines; endogenous in cells
In words: Kinobeads competition binding: PIM1. As to conditions: target PIM1.

The subject of the next test is NEK2. In words: Kinobeads competition binding: NEK2. More on the design: species or system human. Particulars: target NEK2.
The target in another test is T5, CDK2 (Homo sapiens, UniProt P24941).
T5 construct: endogenous in cells
The test can be described thus: Kinobeads competition binding: CDK2. As to conditions: target CDK2.

Test [1] deals with phosphorylation sites in RKO cells. In words: Drug-perturbed phosphoproteome analysis in RKO cells. In kind it is cell-based, human. As to conditions: RKO cells, 1 µM for 1 hour. From the text: To be able to measure PKN3 activity in cells, bona fide substrates of the kinase would be needed but no such substrate has been conclusively validated yet. In search for such candidates, we compared the phosphoproteomes of RKO cells (human colorectal cancer cells expressing high PKN3 levels according to ProteomicsDB[53]) in response to the same three compounds (that only share PKN3 as a target), as well as THZ1 (a covalent inhibitor for which PKN3 is a reported off-target[51]) and in response to siRNA-mediated knockdown of PKN3 (Extended Data Fig. 9a,b). […] The respective numbers were far smaller for GSK949675A, GSK902056A (all four drugs used at 1 µM for 1 hour) or the siRNA experiment (48 h of knockdown; Fig. 5d, Extended Data Fig. 9d and Supplementary Table 5). Successful PKN3 knockdown (89 and 92% for 1 and 3 nM siRNA, respectively) was confirmed by parallel reaction monitoring (a quantitative mass spectrometry-based protein expression assay; Extended Data Fig. 10a).
For global phosphoproteomic analysis of PKN3 inhibitors, RKO cells were treated with 1 µM GSK949675A, THZ1, GSK902056A, SB-476429A or DMSO for 1 h in four biological replicates or PKN3 were knocked down as described. After treatment, cells were washed twice with PBS and lyzed by adding 300 µl of lysis buffer (40 mM Tris-HCl pH 7.6, 8 M Urea, EDTA-free protease inhibitor complete mini and phosphatase inhibitor cocktail). Lysates were sonicated (ten cycles, 30 s on, 30 s pause, at 4 °C) and subsequently cleared by centrifugation for 20 min at 21,000g at 4 °C. Protein concentration was determined by Bradford assay and 300 µg protein per condition was digested. After reduction with 10 mM DTT and alkylation of cysteine residues with 50 mM chloroacetamide, the Urea concentration was reduced to 1.5 M by adding […] of 40 mM Tris/HCl pH 7.6. Trypsin was added to a protease-to-protein ratio of 1:50 and digestion was performed over night at 37 °C and 700 r.p.m. on a thermoshaker. Samples were cooled down to room temperature and acidified to a pH < 3 with 0.5% trifluoroacetic acid (TFA) and desalted using 50 mg SepPak columns (Waters; wash solvent 0.07% TFA in deionized water; elution solvent 0.07% TFA, 50% ACN). Subsequently, samples were frozen at −80 °C and dried by vacuum centrifugation. Peptide concentrations were determined by NanoDrop 2000 spectrophotometer and peptide amounts were adjusted. Dried peptides were labeled with TMT6plex as published previously. […] Phosphopeptides were enriched using column based Fe-IMAC as described previously. Subsequently, phosphopeptides were separated into six fractions using high pH reversed-phase stage tips as described before. Samples were dried by vacuum centrifugation.
Nanoflow LC–MS/MS measurement of TMT-labeled phosphopeptides was performed using a Dionex Ultimate3000 nano HPLC coupled online to an Orbitrap Fusion Lumos Tribride (Thermo Fisher Scientific) mass spectrometer. Peptides were delivered to a trap column (75 μm × 2 cm, packed in house with 5 μm C18 resin; Reprosil-Pur AQ, Dr. Maisch) and washed for 10 min with 0.1% FA at a flow rate of 5 μl min^−1. […] MS1 spectra were recorded in the Orbitrap from 360 to 1,300 m/z at a resolution of 60,000 using an AGC target value of 4 × 10^5 charges and a maximum injection time of 20 ms. MS2 spectra were recorded in the Orbitrap at 15,000 resolution after HCD fragmentation using 35% NCE, an AGC target value of 5 × 10^4, maximum injection time of 22 ms and an isolation width of 0.7 m/z. The first mass was fixed to 100 m/z. The number of MS2 spectra was limited by a top ten method. For TMT quantification, an additional MS3 spectrum was acquired in the Orbitrap over a scan range of 100–1,000 m/z at 15,000 resolution (AGC of 1 × 10^5, maximum injection time of 50 ms). For this, fragment ions were selected by multi-notch isolation in the Quadrupole, allowing a maximum of ten notches and subsequently fragmentation by HCD at 55% NCE. Dynamic exclusion was set to 90 s. […]

SMILES strings stand for the structures.

`CCN1CCN(Cc2ccc(Nc3ncc(F)c(-c4cc(F)c5nc(C)n(C(C)C)c5c4)n3)nc2)CC1` [Abemaciclib]: the CATDS at PIM2 was found to be 0; in the test with PKMYT1, 0; on CAMK2B it was 0.1515; in the test with FLT3, 0; in the test on CDC42BPB, 0; at CDK7, 0. Also, the CATDS in the test with NEK9 is 0; on PIM1 it was 0.03255; with NEK2 it was 0.

In the case of `COc1cc(Nc2ncc3c(C)nc(-c4cc5ccccc5[nH]4)n3n2)cc(OC)c1OC` [GW869516X], the “Kinobeads Data” value at FLT3 (FLT3) is “no target”.

In the case of `N#CC1(c2ccc(NC(=O)c3cccnc3NCc3ccncc3)cc2)CCCC1` [Apatinib], the CATDS at PIM2, with PKMYT1, on CAMK2B, in the test on FLT3, in the test with CDC42BPB and on CDK7 was 0 each time. The CATDS with NEK9, at PIM1, at CDK2 and in the test on NEK2 was 0 each time.

Turning to `NCc1ccc(-c2nc(-c3ccncc3)c(-c3ccc(Cl)c(O)c3)[nH]2)cc1` [SB-476429-A], in [1], the “PKN3 activation loop p sites (S544 and T550)” value is reported as “substantial reduction”; the “number of perturbed phosphorylation sites” value (“number” for short) is “a large number of p sites”.

As to `CN(C)C/C=C/C(=O)Nc1cc2c(Nc3ccc(F)c(Cl)c3)ncnc2cc1O[C@H]1CCOC1` [Afatinib], the CATDS at PIM2, on CAMK2B and at CDK2 was 0 each time.

Take `CCn1c(-c2nonc2N)nc2c(C#CC(C)(C)O)nc(OCCNC)cc21` [GSK949675A]: in test [1], the “number” value was “far smaller”.

Take `Nc1ncnc2[nH]c(-c3ccccc3)nc12` [AH5015_KCGS]: the CATDS on PIM2 is 0; in the test on PKMYT1, 0; on CAMK2B, 0; in the test on FLT3, 0; in the test with CDC42BPB it was 0; at CDK7 it was 0.1088. In addition, the CATDS in the test with NEK9, at PIM1, on CDK2 and with NEK2 was 0 each time.

Take `CCn1c(-c2nonc2N)nc2c(C#CC(C)(C)O)nc(OCCN)cc21` [GSK902056A]: the “number” value in test [1] is given as “far smaller”.

For the molecule `CCc1cc2c(cc1N1CCC(N3CCOCC3)CC1)C(C)(C)c1[nH]c3cc(C#N)ccc3c1C2=O` [Alectinib], the CATDS at PIM2, in the test with PKMYT1, at CAMK2B, with FLT3, in the test on CDC42BPB and on CDK7 was 0 in each case. For the same molecule, the CATDS in the test with NEK9, at PIM1, at CDK2 and with NEK2 was 0 in each case.
